Measurements: patent US11407738B2 (Achillion Pharmaceuticals, Inc., priority 2015, dated 2022)

Target: Human Factor D (Homo sapiens (Human), UniProt P00746)
Test: Human Factor D assay
Type: biochemical
Conditions: Factor D inhibition, substrate Z-L-Lys-SBzl
In short: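 Serum-purified human factor D (80 nM final) preincubated 5 min at room temperature with test compound in 50 mM Tris, 1M NaCl, pH 7.5. Z-L-Lys-SBzl substrate and DTNB then added, each at 100 μM final. IC50 from nonlinear regression of reaction rate against compound concentration.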

Human Factor D, sequence (P00746 26-253): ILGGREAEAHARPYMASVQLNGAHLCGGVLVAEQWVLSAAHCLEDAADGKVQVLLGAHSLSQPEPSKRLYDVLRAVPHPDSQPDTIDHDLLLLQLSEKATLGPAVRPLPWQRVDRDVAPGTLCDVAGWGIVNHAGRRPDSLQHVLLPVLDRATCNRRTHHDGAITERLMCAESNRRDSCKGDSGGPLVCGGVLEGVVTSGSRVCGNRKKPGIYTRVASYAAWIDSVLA

## CC(=O)c1nn(CC(=O)N2C[C@H](F)C[C@H]2c2nnc(-c3cccc(Cl)c3F)o2)c2ccc(-c3cnc(C)nc3)cc12 [Compound 574, 2-(3-Acetyl-5-(2-methylpyrimidin-5-yl)-1H-indazol-1-yl)-1-((2S,4R)-2-(5-(3-chloro-2-fluorophenyl)-1,3,4-oxadiazol-2-yl)-4-fluoropyrrolidin-1-yl)ethan-1-one]
Table 4
  IC50: 1 to 10 µM

## CC(=O)c1nn(CC(=O)N2C[C@H](F)C[C@H]2C(=O)Nc2cccc(-c3ccccc3Cl)c2F)c2ccc(N3CCn4c(nnc4C(F)(F)F)C3)cc12 [Compound 531, (2S,4R)-1-(2-(3-acetyl-5-(3-(trifluoromethyl)-5,6-dihydro-[1,2,4]triazolo[4,3-a]pyrazin-7(8H)-yl)-1H-indazol-1-yl)acetyl)-N-(2′-chloro-2-fluorobiphenyl-3-yl)-4-fluoropyrrolidine-2-carboxamide]
Table 3
  IC50: < 1 µM

## Cc1ncc(-c2ccc3c(c2)c([C@@H](C)O)nn3CC(=O)N2C[C@H](F)C[C@H]2C(=O)O)cn1 [Compound 550, (2S,4R)-4-fluoro-1-(2-(3-((R)-1-hydroxyethyl)-5-(2-methylpyrimidin-5-yl)-1H-indazol-1-yl)acetyl)pyrrolidine-2-carboxylic acid]
Table 4
  IC50: > 10 µM

## Cc1cccc(NC(=O)[C@@H]2CCC(F)CCN2C(=O)Cn2cc(C(N)=O)c3cc(-c4cnc5cc(C)nn5c4)ccc32)n1 (stereo partly drawn) [Compound 614, 1-(2-((2S)-5-Fluoro-2-((6-methylpyridin-2-yl)carbamoyl)azepan-1-yl)-2-oxoethyl)-5-(2-methylpyrazolo[1,5-a]pyrimidin-6-yl)-1H-indole-3-carboxamide]
Table 4
  IC50: > 10 µM

## Cc1ncc(-c2ccc3c(c2)c(C(=O)NS(C)(=O)=O)nn3CC(=O)N2C[C@H](F)C[C@H]2C(=O)Nc2cccc(Br)n2)cn1 [Compound 585, 1-(2-((2S,4R)-2-((6-bromopyridin-2-yl)carbamoyl)-4-fluoropyrrolidin-1-yl)-2-oxoethyl)-5-(2-methylpyrimidin-5-yl)-N-(methylsulfonyl)-1H-indazole-3-carboxamide]
Table 4
  IC50: > 10 µM

## CC(=O)c1nn(CC(=O)N2CC=CC[C@H]2C(=O)Nc2cccc(C)n2)c2ccc(-c3cnc(C)nc3)cc12 [Compound 569, (S)-1-(2-(3-acetyl-5-(2-methylpyrimidin-5-yl)-1H-indazol-1-yl)acetyl)-N-(6-methylpyridin-2-yl)-1,2,3,6-tetrahydropyridine-2-carboxamide]
Table 4
  IC50: > 10 µM

## CC(=O)c1nn(CC(=O)N2C[C@H](F)C[C@H]2C(=O)Nc2cccc(-c3cc(F)ccc3S(C)(=O)=O)c2F)c2ccc(-c3cnc(C)nc3)cc12 [Compound 539, (2S,4R)-1-(2-(3-acetyl-5-(2-methylpyrimidin-5-yl)-1H-indazol-1-yl)acetyl)-N-(2,5′-difluoro-2′-(methylsulfonyl)-[1,1′-biphenyl]-3-yl)-4-fluoropyrrolidine-2-carboxamide]
Table 4
  IC50: < 1 µM
